Patent US9163021B2, “Pyrrolo[3,2-c]pyridine tropomyosin-related kinase inhibitors” (Pfizer Limited, priority 2012, dated 2015)
pIC50: −log10 of the molar value.

Target: TRKA (Homo sapiens (Human), UniProt P04629)
Assay: Isolated TRK enzyme assay (HTRF KinEASE-TK), PV3144 TrkA enzyme assay
Format: biochemical
Settings: arithmetic mean where more than one reading
How it was run: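 Kinase (recombinant His-TrkA cytoplasmic domain, ATP-preactivated 20 min) met compound 20 min, then biotinylated TK substrate (1 µM final) with Mg2+/DTT buffer; HTRF detection.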

TRKA, sequence (P04629 441-796): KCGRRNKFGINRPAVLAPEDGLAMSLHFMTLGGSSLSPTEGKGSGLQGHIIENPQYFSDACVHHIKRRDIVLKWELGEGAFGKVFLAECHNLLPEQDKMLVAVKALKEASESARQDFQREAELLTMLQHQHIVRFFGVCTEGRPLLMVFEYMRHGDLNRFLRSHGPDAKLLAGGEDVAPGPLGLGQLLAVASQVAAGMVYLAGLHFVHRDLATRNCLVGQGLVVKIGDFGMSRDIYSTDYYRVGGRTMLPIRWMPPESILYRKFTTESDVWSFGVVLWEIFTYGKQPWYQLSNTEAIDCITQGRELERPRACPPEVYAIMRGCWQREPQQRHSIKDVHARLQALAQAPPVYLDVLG

| Compound | pIC50 |
| --- | --- |
| Cc1cc(CC(=O)Nc2cc(C(=O)c3cn(C(C)C)c4ccncc34)ccn2)[nH]n1 [Example 177, 2(3-methyl-1H-pyrazol-5-yl)-N-(4-{[1-(propan-2-yl)-1H-pyrrolo[3,2-c]pyridin-3-yl]carbonyl}pyridin-2-yl)acetamide] | 6.99 |
| CC(C)n1ncc(CC(=O)Nc2cc(C(=O)c3cn(C(C)C)c4ccncc34)ccn2)c1C(F)(F)F [Example 178, N-(4-{[1-(propan-2-yl)-1H-pyrrolo[3,2-c]pyridin-3-yl]carbonyl}pyridin-2-yl)-2-[1-(propan-2-yl)-5-(trifluoromethyl)-1H-pyrazol-4-yl]acetamide] | 7.66 |
| Cc1nc(CC(=O)Nc2cc(C(=O)c3cn(C(C)C)c4ccncc34)ccn2)c(C)o1 [Example 179, 2-(2,5-dimethyl-1,3-oxazol-4-yl)-N-(4-{[1-(propan-2-yl)-1H-pyrrolo[3,2-c]pyridin-3-yl]carbonyl}pyridin-2-yl)acetamide] | 6.79 |
| CC(C)n1cc(C(=O)c2ccnc(NC(=O)Cc3ccon3)c2)c2cnccc21 [Example 180, 2-(1,2-oxazol-3-yl)-N-(4-{[1-(propan-2-yl)-1H-pyrrolo[3,2-c]pyridin-3-yl]carbonyl}pyridin-2-yl)acetamide] | 5.97 |
| CC(C)n1cc(C(=O)c2ccnc(NC(=O)Cc3cscn3)c2)c2cnccc21 [Example 181, N-(4-{[1-(propan-2-yl)-1H-pyrrolo[3,2-c]pyridin-3-yl]carbonyl}pyridin-2-yl)-2(1,3-thiazol-4-yl)acetamide] | 6.27 |
| CC(C)n1cc(C(=O)c2ccnc(NC(=O)Cc3ccccc3OC(F)(F)F)c2)c2cnccc21 [Example 182, N-(4-{[1-(propan-2-yl)-1H-pyrrolo[3,2-c]pyridin-3-yl]carbonyl}pyridin-2-yl)-2-[2-(trifluoromethoxy)phenyl]acetamide] | 7.58 |
| CC(C)n1cc(C(=O)c2ccnc(NC(=O)Cc3ccc(C#N)cc3)c2)c2cnccc21 [Example 183, 2-(4-cyanophenyl)-N-(4-{[1-(propan-2-yl)-1H-pyrrolo[3,2-c]pyridin-3-yl]carbonyl}pyridin-2-yl)acetamide] | 7.75 |
| Cc1n[nH]c(CC(=O)Nc2cc(C(=O)c3cn(C(C)C)c4ccncc34)ccn2)n1 [Example 184, 2-(3-methyl-1H-1,2,4-triazol-5-yl)-N-(4-{[1-(propan-2-yl)-1H-pyrrolo[3,2-c]pyridin-3-yl]carbonyl}pyridin-2-yl)acetamide] | 5.50 |
| CC(C)n1cc(C(=O)c2ccnc(NC(=O)Cc3cncs3)c2)c2cnccc21 [Example 185, N-(4-{[1-(propan-2-yl)-1H-pyrrolo[3,2-c]pyridin-3-yl]carbonyl}pyridin-2-yl)-2(1,3-thiazol-5-yl)acetamide] | 5.73 |
| CC(C)n1cc(C(=O)c2ccnc(NC(=O)Cc3ccc(F)cc3)c2)c2cnccc21 [Example 186, 2(4-fluorophenyl)-N-(4-{[1-(propan-2-yl)-1H-pyrrolo[3,2-c]pyridin-3-yl]carbonyl}pyridin-2-yl)acetamide] | 7.88 |
| CC(C)n1cc(C(=O)c2ccnc(NC(=O)Cc3nnn[nH]3)c2)c2cnccc21 [Example 187] | 5.01 |
| CC(C)n1cc(C(=O)c2ccnc(NC(=O)Cn3cc(C(C)(C)O)nn3)c2)c2cnccc21 [Example 188] | 6.32 |
| CC(C)n1cc(C(=O)c2ccnc(NC(=O)Cc3coc(C4CC4)n3)c2)c2cnccc21 [Example 189, 2-(2-cyclopropyl-1,3-oxazol-4-yl)-N-(4-{[1-(propan-2-yl)-1H-pyrrolo[3,2-c]pyridin-3-yl]carbonyl}pyridin-2-yl)acetamide] | 7.87 |
| CC(C)n1cc(C(=O)c2ccnc(NC(=O)Cn3nccn3)c2)c2cnccc21 [Example 190, N-(4-{[1-(propan-2-yl)-1H-pyrrolo[3,2-c]pyridin-3-yl]carbonyl}pyridin-2-yl)-2-(2H-1,2,3-triazol-2-yl)acetamide] | 6.11 |
| CC(C)n1cc(C(=O)c2ccnc(NC(=O)Cc3cccc(OC(F)(F)F)c3)c2)c2cnccc21 [Example 191, N-(4-{[1-(propan-2-yl)-1H-pyrrolo[3,2-c]pyridin-3-yl]carbonyl}pyridin-2-yl)-2-[3-(trifluoromethoxy)phenyl]acetamide] | 8.13 |
| CC(C)n1cc(C(=O)c2ccnc(NC(=O)Cc3nnnn3C)c2)c2cnccc21 [Example 192, 2-(1-methyl-1H-tetrazol-5-yl)-N-(4-{[1-(propan-2-yl)-1H-pyrrolo[3,2-c]pyridin-3-yl]carbonyl}pyridin-2-yl)acetamide] | 5.01 |
| CC(C)n1cc(C(=O)c2ccnc(NC(=O)Cn3cncn3)c2)c2cnccc21 [Example 193, N-(4-{[1-(propan-2-yl)-1H-pyrrolo[3,2-c]pyridin-3-yl]carbonyl}pyridin-2-yl)-2-(1H-1,2,4-triazol-1-yl)acetamide] | 5.00 |

| Compound | pIC50 |
| --- | --- |
| O=C(Cc1cccc(OC(F)(F)F)c1)Nc1cc(C(=O)c2cn(C3COC3)c3ccncc23)ccn1 [Example 194, N-(4-{[1-(oxetan-3-yl)-1H-pyrrolo[3,2-c]pyridin-3-yl]carbonyl}pyridin-2-yl)-2-[3-(trifluoromethoxy)phenyl]acetamide] | 7.86 |
| N#Cc1ccc(CC(=O)Nc2cc(C(=O)c3cn(C4COC4)c4ccncc34)ccn2)cc1 [Example 195, 2-(4-cyanophenyl)-N-(4-{[1-(oxetan-3-yl)-1H-pyrrolo[3,2-c]pyridin-3-yl]carbonyl}pyridin-2-yl)acetamide] | 6.69 |
| O=C(Cc1ccc(F)cn1)Nc1cc(C(=O)c2cn(C3COC3)c3ccncc23)ccn1 [Example 196, 2-(5-fluoropyridin-2-yl)-N-(4-{[1-(oxetan-3-yl)-1H-pyrrolo[3,2-c]pyridin-3-yl]carbonyl}pyridin-2-yl)acetamide] | 5.89 |
| O=C(Cc1coc(C2CC2)n1)Nc1cc(C(=O)c2cn(C3COC3)c3ccncc23)ccn1 [Example 197, 2-(2-cyclopropyl-1,3-oxazol-4-yl)-N-(4-{[1-(oxetan-3-yl)-1H-pyrrolo[3,2-c]pyridin-3-yl]carbonyl}pyridin-2-yl)acetamide] | 6.28 |
| O=C(Cc1ccc(F)cc1F)Nc1cc(C(=O)c2cn(C3COC3)c3ccncc23)ccn1 [Example 198, 2-(2,4-difluorophenyl)-N-(4-{[1-(oxetan-3-yl)-1H-pyrrolo[3,2-c]pyridin-3-yl]carbonyl}pyridin-2-yl)acetamide] | 6.98 |
| CC(C)c1cn(CC(=O)Nc2cc(C(=O)c3cn(C4COC4)c4ccncc34)ccn2)nn1 [Example 199, N-(4-{[1-(oxetan-3-yl)-1H-pyrrolo[3,2-c]pyridin-3-yl]carbonyl}pyridin-2-yl)-2-[4-(propan-2-yl)-1H-1,2,3-triazol-1-yl]acetamide] | 6.73 |
| Cc1oc(C2CC2)nc1CC(=O)Nc1cc(C(=O)c2cn(C3COC3)c3ccncc23)ccn1 [Example 200, 2-(2-cyclopropyl-5-methyl-1,3-oxazol-4-yl)-N-(4-{[1-(oxetan-3-yl)-1H-pyrrolo[3,2-c]pyridin-3-yl]carbonyl}pyridin-2-yl)acetamide] | 6.76 |
| CC(C)n1ncc(CC(=O)Nc2cc(C(=O)c3cn(C4COC4)c4ccncc34)ccn2)c1C(F)(F)F [Example 201] | 6.50 |
| O=C(Cc1nc(C2CC2)oc1C1CC1)Nc1cc(C(=O)c2cn(C3COC3)c3ccncc23)ccn1 [Example 202, 2-(2,5-dicyclopropyl-1,3-oxazol-4-yl)-N-(4-{[1-(oxetan-3-yl)-1H-pyrrolo[3,2-c]pyridin-3-yl]carbonyl}pyridin-2-yl)acetamide] | 6.36 |
| O=C(Cc1ccc(F)cc1)Nc1cc(C(=O)c2cn(C3COC3)c3ccncc23)ccn1 [Example 204, 2-(4-fluorophenyl)-N-(4-{[1-(oxetan-3-yl)-1H-pyrrolo[3,2-c]pyridin-3-yl]carbonyl}pyridin-2-yl)acetamide] | 6.64 |
| O=C(Nc1cc(C(=O)c2cn(C3COC3)c3ccncc23)ccn1)c1cccc(OC(F)(F)F)c1 [Example 205, N-(4-{[1-(oxetan-3-yl)-1H-pyrrolo[3,2-c]pyridin-3-yl]carbonyl}pyridin-2-yl)-3-(trifluoromethoxy)benzamide] | 7.48 |
| N#Cc1ccc(CC(=O)Nc2cc(C(=O)c3cn(C4COC4)c4ccncc34)ccn2)cc1C(F)(F)F [Example 221, 2-[4-cyano-3-(trifluoromethyl)phenyl]-N-(4-{[1-(oxetan-3-yl)-1H-pyrrolo[3,2-c]pyridin-3-yl]carbonyl}pyridin-2-yl)acetamide] | 6.86 |
| CC(CO)n1cc(C(=O)c2cc(NC(=O)Cc3ccc(C(F)(F)F)cc3)ccn2)c2cnccc21 (stereo not shown) [Example 230, N-(2-{[1-(1-hydroxypropan-2-yl)-1H-pyrrolo[3,2-c]pyridin-3-yl]carbonyl}pyridin-4-yl)-2-[4-(trifluoromethyl)phenyl]acetamide] | 7.74 |
| CC(C)(CO)n1cc(C(=O)c2cc(NC(=O)Cc3ccc(C(F)(F)F)cc3)ccn2)c2cnccc21 [Example 231, N-(2-{[1-(1-hydroxy-2-methylpropan-2-yl)-1H-pyrrolo[3,2-c]pyridin-3-yl]carbonyl}pyridin-4-yl)-2-[4-(trifluoromethyl)phenyl]acetamide] | 7.89 |
| CC(C)(CO)n1cc(C(=O)c2cc(NC(=O)Cc3cccc(C(F)(F)F)c3)ccn2)c2cnccc21 [Example 232, N-(2-{[1-(1-hydroxy-2-methylpropan-2-yl)-1H-pyrrolo[3,2-c]pyridin-3-yl]carbonyl}pyridin-4-yl)-2-[3-(trifluoromethyl)phenyl]acetamide] | 7.95 |
| CC(C)n1cc(C(=O)c2ccnc(NC(=O)Cc3ccc(C#N)c(C(F)(F)F)c3)c2)c2cnccc21 [Example 233, 2-[4-cyano-3-(trifluoromethyl)phenyl]-N-(4-{[1-(propan-2-yl)-1H-pyrrolo[3,2-c]pyridin-3-yl]carbonyl}pyridin-2-yl)acetamide] | 7.61 |
| CC(C)(CO)n1cc(C(=O)c2cc(NC(=O)Cn3ccc(C4CC4)n3)ccn2)c2cnccc21 [Example 234, 2-(3-cyclopropyl-1H-pyrazol-1-yl)-N-(2-{[1-(1-hydroxy-2-methylpropan-2-yl)-1H-pyrrolo[3,2-c]pyridin-3-yl]carbonyl}pyridin-4-yl)acetamide] | 7.78 |
